Measured values from PubChem BioAssay AID179 (DTP/NCI, 2004).
Where “and” joins values, the source holds several entries; their conditions need not be identical. Equal entries are not always repeated. Calls of active or inactive are those of the source.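 The calls were made as follows: active = compounds giving half or more protection of infected cells from virus-caused growth loss, again on retest; inactive = the rest.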

Tested on: CEM cells HIV-1 protection, formazan growth assay
Assay: NCI AIDS Antiviral Assay
Conditions: for IC50: measured here: growth of uninfected CEM cells
Method in brief: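 Protection of CEM cells against HIV-1 measured as cell growth via soluble formazan read-out, with five concentrations tested on both infected and uninfected cells; failure to protect may reflect toxicity.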

Row | SMILES | EC50 | IC50 | outcome
1 | CNC1=C2NC(=O)/C(C)=C\C=C\C(C)C(O)C(C)C(O)C(C)C(OC(C)=O)C(C)C(OC)/C=C/OC3(C)Oc4c(C)c(O)c(c(c4C3=O)C1=O)C2=O (centres undefined) | > 200 µM | 3.8 µM | –
2 | Cc1ccc(-n2c(=S)n(-c3ccccc3C)c3nc4ccccc4nc2/c3=N\Nc2ccc(Cl)cc2)cc1 | 117 µM | 123 µM | –
3 | CN(C)/N=C(/c1nc2ccc([N+](=O)[O-])cc2[nH]c1=O)C(O)c1ccco1 (centres undefined) | > 263 µM | 191 µM | –
4 | COc1ccccc1NC(=O)C1=C(C)NC(C)=C(C(=O)Nc2ccccc2OC)C1c1ccccc1F | – | – | inactive
5 | O=C(CSc1nnc(-c2ccc(N=Cc3ccc(Cl)cc3)cc2)o1)Nc1ccc(Cl)cc1Cl | > 34.7 µM | 25.1 µM | –
6 | CCOC(=O)/C(=C\c1ccc(CO)o1)P(=O)(OCC)OCC | > 200 µM | 30.9 µM | –
7 | NC(=O)CCC(F)(C(N)=O)C(N)=O | > 200 µM | > 200 µM | –
8 | O=C1OC2=C(c3ccccc3)C(=O)OC2=C1c1ccccc1 | – | – | inactive
9 | N=C(CN1CCCCC1)N1CCCCC1 | > 200 µM | > 200 µM | –
10 | NCCSSCC(N)C(=O)O (centres undefined) | > 58.9 µM | > 58.9 µM | –
11 | C[C@H]1ON2CCC[C@@H]2[C@@H]1C(=O)N1C2CC3CCC2(CS1(=O)=O)C3(C)C (some centres undefined) | > 200 µM | > 200 µM | –
12 | NCCN1C(=O)C2C3c4ccccc4C(c4ccccc43)C2C1=O (centres undefined) | – | – | inactive
13 | COc1cc(CNC(=O)CCCCCCCC/C=C/Br)ccc1O | > 200 µM | 21.4 µM | –
14 | C=C1CN(S(=O)(=O)c2ccc(C)cc2)CCCN(CCC(C)C)CCCN(S(=O)(=O)c2ccc(C)cc2)C1 | > 200 µM | 1.02 µM | –
15 | C/C=C/CSc1cc(NC(=S)c2ccsc2C)ccc1Cl | 0.263 µM | 12.3 µM | –
16 | CC(C)=CCC1(c2ccccc2)Oc2ccccc2-n2cccc2C1=O (centres undefined) | > 200 µM | 138 µM | –
17 | C/C(=N\NC(N)=S)c1sc(-n2nc(-c3ccccc3)cc2-c2ccccc2)nc1C | > 16.6 µM | > 16.6 µM | –
18 | O=C(NCCN1CCCCC1)c1ccc(I)cc1 | > 200 µM | > 200 µM | –
19 | CCc1cc(Cc2cc(Cl)c(NC(=O)C(=O)C3NC(=O)NC3=O)c(CC)c2)cc(Cl)c1NC(=O)C(=O)C1NC(=O)NC1=O (centres undefined) | > 151 µM | 24.5 µM | –
20 | O=C(O)/C=C/C=C/C(=O)O | > 200 µM | > 200 µM | –
21 | CC1(C)CC(=O)C2=C(C1)NC(SSC1=C(C#N)C(c3ccc(Br)cc3)C3=C(CC(C)(C)CC3=O)N1)=C(C#N)C2c1ccc(Br)cc1 (centres undefined) | 36.3 µM | 52.5 µM | –
22 | COC(=O)c1cc2c(c(C(=O)OC)c1O)C(=O)C=CC2=O | > 25.1 µM | 6.61 µM | –

Row | SMILES | EC50 | IC50 | outcome
23 | CCOC(=O)/C(=C\c1ccc(N(C)C)cc1)C(C)=O | > 501 µM | 162 µM | –
24 | O=C(O)CSc1cc(-c2ccc(Cl)cc2)s[s+]1 | > 200 µM | > 200 µM | –
25 | COC12C(COC(=O)NCCO)C3=C(C(=O)C(C)=C(N)C3=O)N1CC1NC12 (centres undefined) | > 331 µM | 1.15 µM | –
26 | Cc1ccc2c(C3Cc4ccccc4N3C(=O)/C=C\C(=O)O)c(C)[nH]c2c1 (centres undefined) | > 363 µM | 60.3 µM | –
27 | O=C(OCC(Cl)(Cl)Cl)OCC(Cl)(Cl)Cl | > 200 µM | > 200 µM | –
28 | Cc1cc(NS(=O)(=O)c2ccc(Nc3c4ccccc4nc4c(C(=O)Nc5ccccc5)cccc34)cc2)no1 | > 200 µM | 10.5 µM | –
29 | COc1cc(-c2ccc(Nc3ccccc3C(=O)O)c(OC)c2)ccc1Nc1ccccc1C(=O)O | > 200 µM | 0.692 µM | –
30 | COc1cc(O)c(C(=O)C2Cc3ccccc32)c(OC)c1 (centres undefined) | – | – | inactive
31 | CCOC(=O)/C(C#N)=C1\N[C@H](C(=O)OCC)CO1 | > 977 µM | > 977 µM | –
32 | O=C(C(/C=N/C(=S)NCc1ccccc1)=C(/O)c1ccccc1)c1ccccc1 | > 200 µM | 30.9 µM | –
33 | O=C1NC(O)n2c(=O)[nH]c(=O)n21 (centres undefined) | – | – | inactive
34 | N#CC(C#N)=Cc1ccccc1[N+](=O)[O-] | > 302 µM | 15.1 µM | –
35 | COC1OCC(N)C(O)C1O (centres undefined) | – | – | inactive
36 | CSc1nc2nc(C(O)C(O)C(O)CO)cnc2c(=O)[nH]1 (centres undefined) | – | – | inactive
37 | CC1CN2CC(C)OB(O1)OC(C)C2 (centres undefined) | – | – | inactive
38 | COC(=O)C1(C(=O)OC)CCCC2=NOC3CCC1C23 (centres undefined) | > 891 µM | 575 µM | –
39 | CC(=O)CNC(=O)OC(C)(C)C | – | – | inactive
40 | COC(=O)C1=CCC(n2cnc3c(N)ncnc32)CC1 (centres undefined) | > 912 µM | 110 µM | –
41 | CC1(C)COC(CCCCCNC2=NCCCCC2)=N1 | > 200 µM | > 200 µM | –
42 | CCCCCCCCOCC(O)CO (centres undefined) | – | – | inactive
43 | CCCCC1CC(c2cccc([N+](=O)[O-])c2)=NO1 (centres undefined) | > 15.1 µM | > 15.1 µM | –
44 | Oc1ccc(Cc2nccc3cc(O)c(O)cc23)cc1O | > 200 µM | 29.5 µM | –

Row | SMILES | EC50 | IC50 | outcome
45 | CCCNC1=C2C[C@@H](C)C[C@@H](OC)[C@@H](OC(=O)CCCN)[C@H](C)/C=C(\C)[C@@H](OC(N)=O)[C@H](OC)/C=C\C=C(/C)C(=O)NC(=CC1=O)C2=O | > 200 µM | 11.5 µM | –
46 | CCCCN=C(c1ccccc1)N1CCOCC1 | > 200 µM | > 200 µM | –
47 | CCOC(=O)c1cc2c3c(cc(OC)c2[nH]1)N(C(=O)OCC)CC3 | > 100 µM | > 100 µM | –
48 | O=S1(=O)CCN(Cc2ccccc2)/C1=N\S(=O)(=O)c1ccc(Cl)cc1 | > 200 µM | 17 µM | –
49 | c1ccc(CNN2CN(NCc3ccccc3)CN(NCc3ccccc3)C2)cc1 | > 100 µM | 70.8 µM | –
50 | C(#CC1(Nc2ccccc2)CCN(Cc2ccccc2)CC1)C1(Nc2ccccc2)CCN(Cc2ccccc2)CC1 | > 100 µM | 74.1 µM | –
51 | CCCCCCCCCCCCCCCC(=O)NC(Cc1c[nH]c2ccccc12)C(=O)O (centres undefined) | > 200 µM | 50.1 µM | –
52 | C=C(C)C(=O)O[C@H]1C/C(CO)=C/CCC(=C)C(OC(C)=O)[C@H]2OC(=O)C(=C)[C@H]12 (some centres undefined) | > 200 µM | 1.05 µM | –
53 | Cc1ccc(NC(=S)Nc2c(C)n(C)n(-c3ccccc3)c2=O)cc1 | > 200 µM | > 200 µM | –
54 | CC(C)(C)OC(=O)N1CCCC1=O | > 200 µM | > 200 µM | –
55 | CCOC(=O)CCC(NC(=O)c1ccc(N=Cc2nc3ccccc3nc2-c2ccccc2)cc1)C(=O)OCC (centres undefined) | > 12.6 µM | > 12.6 µM | –
56 | N#C/C(c1nc2ccccc2[nH]1)=c1\s/c(=C(/N)O)c(=N)n1-c1ccccc1 | > 13.8 µM | > 13.8 µM | –
57 | CSc1c(S(C)=O)[nH]c2cc(Br)cc(Br)c12 (centres undefined) | – | – | inactive
58 | COc1ccc(CC2COC(=O)[C@@H]2Cc2ccc(O)cc2)cc1OC (some centres undefined) | > 200 µM | 44.7 µM | –
59 | O=C1C2=C(C(=O)C3=C1C1CCC3C1)C1CCC2C1 | > 200 µM | 5.89 µM | –
60 | CC1C(C#N)(C#N)C(C#N)=C(N)C1(C)[N+](=O)[O-] (centres undefined) | > 200 µM | 27.5 µM | –
61 | O=C(/C=C/c1cccc([N+](=O)[O-])c1)c1ccccc1 | > 20.4 µM | 11.5 µM | –
62 | C=C1CN(S(=O)(=O)c2ccc(C)cc2)CCN(C(=O)OC(C)(C)C)CCN(S(=O)(=O)c2ccc(C)cc2)C1 | > 200 µM | 20 µM | –
63 | COc1ccc(N2C(=O)C3c4[nH]c5ccc(F)cc5c4C4CCC(C(C)(C)C)CC4C3C2=O)cc1 (centres undefined) | > 200 µM | 22.4 µM | –
64 | CC(=O)N(C)c1ccc2ncccc2c1[N+](=O)[O-] | > 1020 µM | 562 µM | –
65 | O=c1c(OS(=O)(=O)O)c(-c2ccc(OS(=O)(=O)O)cc2OS(=O)(=O)O)oc2cc(OS(=O)(=O)O)cc(OS(=O)(=O)O)c12 | > 100 µM | > 100 µM | –
66 | CCOP(=S)(OCC)Oc1ccc2c(c1)OC(=O)C1(Cl)C2(C)C2(Cl)C(=O)Oc3cc(OP(=S)(OCC)OCC)ccc3C12C (centres undefined) | > 18.6 µM | > 18.6 µM | –

Row | SMILES | EC50 | IC50 | outcome
67 | CN(C)C1C(=O)C(C(N)=O)=C(O)C2(O)C(=O)C3=C(O)c4c(O)cccc4C(C)(O)C3CC12 (centres undefined) | > 562 µM | 40.7 µM and 10.7 µM | –
68 | N#CC1(O)CCCCCCCCCCC1 | > 200 µM | > 200 µM | –
69 | Cn1c(-c2cccs2)cc(-c2cccs2)c1-c1ccco1 | > 200 µM | 30.2 µM | –
70 | C=C1C2CC[C@H]3C4(C)CCCC(C)(C(=O)O)[C@H]4CCC3(C2)[C@@H]1OC(C)=O (some centres undefined) | > 105 µM | 77.6 µM | –
71 | CNC(=O)N(C)COC | > 759 µM | 115 µM | –
72 | NC1=NCN2C(=N1)OC1C(O)C(CO)OC12 (centres undefined) | > 200 µM | > 200 µM | –
73 | Cc1ccc([S+](c2ccccc2)c2cc(C)ccc2C)cc1 (centres undefined) | > 646 µM | 1.17 µM | –
74 | Cc1ccc(SSc2ccc(C)cc2C(=O)O)c(C(=O)O)c1 | > 200 µM | > 200 µM | –
75 | Cc1nc2c(N)c3nc(C)n(N)c(=O)c3cc2c(=O)n1N | > 2.14 µM | > 2.14 µM | –
76 | Nc1c(S(=O)(=O)O)cc(Nc2ccc(S(=O)(=O)O)c(Nc3nc(Cl)nc(Cl)n3)c2)c2c1C(=O)c1ccccc1C2=O | > 200 µM | > 200 µM | –
77 | CCCCN(CCCC)c1cc(=O)nc2ccccn12 | > 200 µM | > 200 µM | –
78 | CS(=O)(=O)c1ccc(C(=O)O[C@@H]2C(=O)N3CC[C@H]4OC(O)[C@@H]2[C@H]43)cc1 (some centres undefined) | > 200 µM | > 200 µM | –
79 | CN(C)c1ccc(/C=C(\C#N)c2ccc(Br)cc2)cc1 | > 100 µM | 1.35 µM | –
80 | CCOC(=O)/C(=C/c1ccc(N(C)C)cc1)N(CC)CC | > 46.8 µM | > 46.8 µM | –
81 | Fc1ccc2c3c([nH]c2c1)CCN(Cc1ccccc1)C3 | > 200 µM | 38 µM | –
82 | N#CC(C#N)=Cc1cccc([N+](=O)[O-])c1 | > 178 µM | 15.5 µM | –
83 | CCCCCCCCCCCC(=O)OCC(C[As](=O)(O)O)OC(=O)CCCCCCCCCCC (centres undefined) | > 200 µM | 1.82 µM | –
84 | O=[N+]([O-])C(=C(Sc1ccccc1)Sc1ccccc1)C(Cl)=C(Cl)Cl | – | – | inactive
85 | O=C(CCc1cc(-c2ccc(F)cc2)n[nH]1)N(Cc1ccccc1)Cc1ccccc1 | > 17.4 µM | > 17.4 µM | –
86 | COc1ncc(C#CC(=O)c2ccccc2OC)c(OC)n1 | > 0.2 µM | 0.132 µM | –
87 | N#Cc1cc([N+](=O)[O-])ccc1NC(=O)C(=O)Nc1n[nH]c(N)n1 | > 794 µM | 692 µM | –
88 | O=C(C[n+]1ccccc1)N/N=C(/CCC(=O)N(Cc1ccccc1)Cc1ccccc1)CC(=O)c1ccccc1 | > 437 µM | > 437 µM | –
